Patent US20160158200A1, “Combinations of Hepatitis C Virus Inhibitors” (priority 2013, published 2016)

Tested on: HCV genotype-1a variant with glutamine 30 changed to glutamate in the NS5A protein
Format: cell-based
Details: test compound titrated with BMS-790052 fixed at 200 nM; genotype 1a Q30E replicon
Outline: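 Synergy was assessed by combining several fixed amounts of an NS5A-targeting compound with a titration of the second compound of interest.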

Compound | Fold-Synergistic 1a (Q30E) [fold]
CN(C(=O)C(C)(C)C)[C@H](c1ncc(-c2ccc(-c3ccc(-c4cnc([C@@H](N(C)C(=O)C(C)(C)C)C(C)(C)C)[nH]4)cc3)cc2)[nH]1)C(C)(C)C [Compound B-207] | <10
CC1(C(=O)NC(c2nc(-c3ccc(-c4ccc(-c5c[nH]c(C(NC(=O)C6(C)CC(F)(F)CCO6)C(C)(C)C)n5)cc4)cc3)c[nH]2)C(C)(C)C)CC(F)(F)CCO1 (centres unmarked) [Compound Y-75] | >100
CC(C)[C@H](NC(=O)C(=O)C1(CF)CCC(F)(F)CC1)c1ncc(-c2ccc(-c3ccc(-c4cnc([C@@H](NC(=O)C(=O)C5(CF)CCC(F)(F)CC5)C(C)C)[nH]4)cc3)cc2)[nH]1 [Compound P-127] | >100
CC(C)C(NC(=O)C1(N2CCC(F)(F)CC2)COC1)c1nc(-c2ccc(-c3ccc(-c4c[nH]c(C(NC(=O)C5(N6CCC(F)(F)CC6)COC5)C(C)C)n4)cc3)cc2)c[nH]1 (centres unmarked) [Compound W-64] | >100
CC(C)[C@H](NC(=O)C1(c2ccc(F)cc2)CCC1)c1ncc(-c2ccc(-c3ccc(-c4cnc([C@@H](NC(=O)C5(c6ccc(F)cc6)CCC5)C(C)C)[nH]4)cc3)cc2)[nH]1 [Compound P-82] | >100
CC1(C)CC1C(=O)N[C@H](c1ncc(-c2ccc(-c3ccc(-c4cnc([C@@H](NC(=O)C5CC5(C)C)C(C)(C)C)[nH]4)cc3)cc2)[nH]1)C(C)(C)C (single isomer, unassigned) [Compound B79] | >100
CN1CCC(C(=O)N[C@H](c2nc(-c3ccc(-c4ccc(-c5c[nH]c([C@@H](NC(=O)C6CCN(C)CC6)C(C)(C)C)n5)cc4)cc3)c[nH]2)C(C)(C)C)CC1 [Compound S-268] | >10
CC1(C(=O)N[C@H](c2ncc(-c3ccc(-c4ccc(-c5cnc([C@@H](NC(=O)C6(C)CCCCC6O)C(C)(C)C)[nH]5)cc4)cc3)[nH]2)C(C)(C)C)CCCCC1O (some centres unmarked) [Compound Y-97] | >100
CC1CN(C(=O)C(=O)N[C@H](c2nc(-c3ccc(-c4ccc(-c5c[nH]c([C@@H](NC(=O)C(=O)N6CC(C)OC(C)C6)C(C)(C)C)n5)cc4)cc3)c[nH]2)C(C)(C)C)CC(C)O1 (single isomer, unassigned) [Compound W-40C] | >100
CC(C)[C@H](NC(=O)C(C)(C)F)c1ncc(-c2ccc(-c3ccc(-c4cnc([C@@H](NC(=O)C(C)(C)F)C(C)C)[nH]4)cc3)cc2)[nH]1 [Compound P-99] | >100
CC(C)[C@H](NC(=O)C(C)(C)C)c1nc(-c2ccc(-c3ccc(-c4c[nH]c([C@@H](NC(=O)C(C)(C)C)C(C)C)n4)nc3)cc2)c[nH]1 [Compound N-101, N—((S)-2-methyl-1-(4-(4-(6-(2-((S)-2-methyl-1-pivalamidopropyl)-1H-imidazol-4-yl)pyridin-3-yl)phenyl)-1H-imidazol-2-yl)propyl)pivalamide] | >100
CC1(C)C2CCC(C(=O)N[C@H](c3nc(-c4ccc(-c5ccc(-c6c[nH]c([C@@H](NC(=O)C78CCC(C7)C(C)(C)C8O)C(C)(C)C)n6)cc5)cc4)c[nH]3)C(C)(C)C)(C2)C1O (single isomer, unassigned) [Compound Y-107] | >100
CC(C)N(C(=O)C(=O)N[C@H](c1nc(-c2ccc(-c3ccc(-c4c[nH]c([C@@H](NC(=O)C(=O)N(C(C)C)C5CC5)C(C)(C)C)n4)cc3)cc2)c[nH]1)C(C)(C)C)C1CC1 [Compound W-49] | >100
CC(C)[C@H](NC(=O)C(c1ccccc1)c1ccccc1)c1ncc(-c2ccc(-c3ccc(-c4cnc([C@@H](NC(=O)C(c5ccccc5)c5ccccc5)C(C)C)[nH]4)cc3)cc2)[nH]1 [Compound S-12] | >100
CC(C)(Br)C(=O)N[C@H](c1nc(-c2ccc(-c3ccc(-c4c[nH]c([C@@H](NC(=O)C(C)(C)Br)C(C)(C)C)n4)cc3)cc2)c[nH]1)C(C)(C)C [Compound W-149] | >100
CC1(C(=O)N[C@H](c2nc(-c3ccc(-c4ccc(-c5c[nH]c([C@@H](NC(=O)C6(C)CCCCC6)C(C)(C)C)n5)cc4)cc3)c[nH]2)C(C)(C)C)CCCCC1 [Compound P-47] | >100
CC(C)(C)[C@H](NC(=O)C1(C(F)(F)F)CC1)c1nc(-c2ccc(-c3ccc(-c4c[nH]c([C@@H](NC(=O)C5(C(F)(F)F)CC5)C(C)(C)C)n4)cc3)cc2)c[nH]1 [Compound P-30] | >100
CCCCOC(=O)N1CCC[C@H]1c1ncc(-c2ccc(-c3ccc(-c4cnc([C@@H]5CCCN5C(=O)OCCCC)[nH]4)cc3)cc2)[nH]1 [Compound S-219] | >10
CC(O)(CF)C(=O)N[C@H](c1nc(-c2ccc(-c3ccc(-c4c[nH]c([C@@H](NC(=O)C(C)(O)CF)C(C)(C)C)n4)cc3)cc2)c[nH]1)C(C)(C)C (single isomer, unassigned) [Compound N-139A] | >100
CC(C)(C)[C@H](NC(=O)C1CC2(C1)OCCO2)c1nc(-c2ccc(-c3ccc(-c4c[nH]c([C@@H](NC(=O)C5CC6(C5)OCCO6)C(C)(C)C)n4)cc3)cc2)c[nH]1 (some centres unmarked) [Compound W-178] | >100
COc1ccccc1C(=O)N[C@H](c1nc(-c2ccc(-c3ccc(-c4c[nH]c([C@@H](NC(=O)c5ccccc5OC)C(C)(C)C)n4)cc3)cc2)c[nH]1)C(C)(C)C [Compound P-28] | >100
CC(C)(C)[C@H](NC(=O)C1(CO)COC1)c1nc(-c2ccc(-c3ccc(-c4c[nH]c([C@@H](NC(=O)C5(CO)COC5)C(C)(C)C)n4)cc3)cc2)c[nH]1 [Compound L-125] | >100
CC(C)C(NC(=O)C1CC(O)CN1C(=O)OC(C)(C)C)c1nc(-c2ccc(-c3ccc(-c4c[nH]c(C(NC(=O)C5CC(O)CN5C(=O)OC(C)(C)C)C(C)C)n4)cc3)cc2)c[nH]1 (centres unmarked) [Compound W-100] | >100
CC(C)(C)[C@H](NC(=O)c1ccc(Cl)s1)c1nc(-c2ccc(-c3ccc(-c4c[nH]c([C@@H](NC(=O)c5ccc(Cl)s5)C(C)(C)C)n4)cc3)cc2)c[nH]1 [Compound N-65] | >100
O=C(c1cnc(Cl)c2ccccc12)N1CCC[C@H]1c1ncc(-c2ccc(-c3ccc(-c4cnc([C@@H]5CCCN5C(=O)c5cnc(Cl)c6ccccc56)[nH]4)cc3)cc2)[nH]1 [Compound S-200] | >100
CC(C)(C)[C@H](NC(=O)C1CCC(F)(F)CC1)c1ncc(-c2ccc3cc4cc(-c5cnc([C@@H](NC(=O)C6CCC(F)(F)CC6)C(C)(C)C)[nH]5)ccc4cc3c2)[nH]1 [Compound B26] | >100
COC(C)(CCO)C(=O)N[C@H](c1nc(-c2ccc(-c3ccc(-c4c[nH]c([C@@H](NC(=O)C(C)(CCO)OC)C(C)(C)C)n4)cc3)cc2)c[nH]1)C(C)(C)C (single isomer, unassigned) [Compound W-258] | >100
CCN(CC)S(=O)(=O)NC(c1nc(-c2ccc(-c3ccc(-c4c[nH]c(C(NS(=O)(=O)N(CC)CC)C(C)(C)C)n4)cc3)cc2)c[nH]1)C(C)(C)C [Compound L-121] | >100
CC(C)(C)[C@H](NC(=O)C1CCC(F)(F)CC1)c1ncc(C#Cc2ccc3cc(-c4cnc([C@@H](NC(=O)C5CCC(F)(F)CC5)C(C)(C)C)[nH]4)ccc3c2)[nH]1 [Compound B1] | >100
